Results as given in patent US8394779B2, “Methods of modulating angiogenesis via TRPV4” (Children's Medical Center Corporation, priority 2008, dated 2013).
Entries after “also recorded” stand apart in the source; their conditions may differ. Where no end group is shown, it is not given here. [ ]: non-standard residue; d: D form.

Tests used:
[1] = biological target: T1, TRPV4 channels (Bos taurus, UniProt A0A8F4X677); test: Calcium imaging with TRPV channel activator; type: cell-based; conditions: bovine CE cells, 2 μM
T1 construct: endogenous in cells; host or cells: bovine CE cells
T1 sequence (A0A8F4X677 1-871): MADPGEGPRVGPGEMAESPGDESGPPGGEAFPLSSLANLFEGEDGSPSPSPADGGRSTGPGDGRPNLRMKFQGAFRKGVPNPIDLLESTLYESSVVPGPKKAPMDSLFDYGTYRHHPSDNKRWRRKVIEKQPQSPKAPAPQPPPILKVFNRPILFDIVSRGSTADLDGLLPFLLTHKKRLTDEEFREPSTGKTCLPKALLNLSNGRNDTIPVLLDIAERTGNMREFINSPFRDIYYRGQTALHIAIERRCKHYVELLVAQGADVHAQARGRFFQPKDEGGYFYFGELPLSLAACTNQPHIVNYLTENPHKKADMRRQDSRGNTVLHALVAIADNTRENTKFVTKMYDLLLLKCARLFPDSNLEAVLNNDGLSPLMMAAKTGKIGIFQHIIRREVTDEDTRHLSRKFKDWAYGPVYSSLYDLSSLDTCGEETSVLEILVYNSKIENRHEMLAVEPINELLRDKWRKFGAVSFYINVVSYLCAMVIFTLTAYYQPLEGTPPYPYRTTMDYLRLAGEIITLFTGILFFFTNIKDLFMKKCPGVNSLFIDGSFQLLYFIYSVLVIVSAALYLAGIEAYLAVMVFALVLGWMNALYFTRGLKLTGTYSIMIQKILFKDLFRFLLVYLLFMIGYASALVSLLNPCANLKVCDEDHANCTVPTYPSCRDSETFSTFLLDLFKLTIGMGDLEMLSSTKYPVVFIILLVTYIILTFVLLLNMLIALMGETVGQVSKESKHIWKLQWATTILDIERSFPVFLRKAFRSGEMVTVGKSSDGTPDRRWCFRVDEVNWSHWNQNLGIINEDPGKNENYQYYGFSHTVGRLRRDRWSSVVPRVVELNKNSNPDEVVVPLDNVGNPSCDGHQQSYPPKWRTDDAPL
Method: (§1) CE cells cultured on fibronectin-coated 6 well UNIFLEX™ (FLEXCELL® International) plates for 24 hours were subjected to uniaxial cyclic stretch (10% elongation; 1 Hz frequency) for 1-2 h using a FLEXERCELL® TENSION PLUS™ System (FLEXCELL® International). In some experiments, CE cells were plated on fibronectin-coated 6 well BIOFLEX® (FLEXCELL® International) for lh and subjected to static stretch (15% elongation) for 1-15 min. Control cells were maintained under identical conditions in the absence of strain application. […] Images were acquired for every 4 seconds and analyzed using IP lab software and Microsoft Excel as described in Matthews, et. al. (2006) (J. Cell Sci., 119:508-518). Calcium imaging with TRPV channel activators was performed on cells cultured on MatTek glass bottomed dishes on LEICA® Confocal Microscope and analyzed using LEICA® software and MICROSOFT® EXCEL®. siRNA knock down of TRPV channels: smart pool siRNAs (10 nM) of TRPV2, TRPV4 (both from Dharmacon), TRPC1 (AMBION®) or control (QIAGEN®) siRNAs was transfected into CE cells using SILENTFECT™ reagent (BIORAD®) as described in Mammoto et. al. (2007) (J. Cell Sci., 120:456-467). […] The knock down of TRPV channel expression was assessed using RT-PCR with species-specific primers and Western blotting. […]

[2] = biological target: T2, TRPV4 channels (Homo sapiens, UniProt Q9HBA0); test: Calcium imaging with TRPV channel activator; type: cell-based; conditions: human CE cells, 2 μM
T2 construct: host or cells: human dermal microvascular endothelial cells (HMVECs)
T2 sequence (Q9HBA0 whole entry): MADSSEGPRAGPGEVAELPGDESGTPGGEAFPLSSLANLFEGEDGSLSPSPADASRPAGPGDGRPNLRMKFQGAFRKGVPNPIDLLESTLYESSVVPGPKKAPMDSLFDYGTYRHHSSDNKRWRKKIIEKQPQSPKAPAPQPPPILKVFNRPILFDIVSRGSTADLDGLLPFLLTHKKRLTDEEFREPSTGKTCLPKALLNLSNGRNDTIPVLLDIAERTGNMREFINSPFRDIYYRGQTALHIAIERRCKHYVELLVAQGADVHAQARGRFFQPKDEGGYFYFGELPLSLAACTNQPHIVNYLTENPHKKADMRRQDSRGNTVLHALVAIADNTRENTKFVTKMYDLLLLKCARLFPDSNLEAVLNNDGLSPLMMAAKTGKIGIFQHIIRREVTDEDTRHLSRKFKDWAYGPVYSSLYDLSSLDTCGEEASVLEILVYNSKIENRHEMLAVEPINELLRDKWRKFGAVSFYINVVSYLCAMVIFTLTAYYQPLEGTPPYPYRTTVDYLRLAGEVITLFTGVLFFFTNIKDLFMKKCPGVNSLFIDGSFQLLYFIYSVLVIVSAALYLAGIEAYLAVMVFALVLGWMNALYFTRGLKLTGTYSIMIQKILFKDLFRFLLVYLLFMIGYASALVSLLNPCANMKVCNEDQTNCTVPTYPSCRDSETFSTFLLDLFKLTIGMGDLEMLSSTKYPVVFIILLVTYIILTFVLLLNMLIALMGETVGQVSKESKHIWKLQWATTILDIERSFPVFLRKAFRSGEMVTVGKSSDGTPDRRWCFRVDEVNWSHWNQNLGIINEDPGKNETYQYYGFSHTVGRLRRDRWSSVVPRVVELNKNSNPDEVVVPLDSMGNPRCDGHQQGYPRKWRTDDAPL
Method: as §1

[3] = tested on: TRPV4-EGFP; test: Whole-cell patch clamp of bovine CE cells transfected with TRPV4-EGFP; type: cell-based; conditions: 4 μM
Method: One day after bovine CE cells were transfected with TRPV4-EGFP, they were plated on gelatin-coated glass coverslips and allowed to grow for ˜24 h prior to recording. Cells were recorded in the whole-cell mode using borosilicate glass pipettes (1-3 MΩ) containing: (in mM) 120 CsMeSO3, 10 EGTA, 2 MgCl2, 10 HEPES; pH and osmolarity were adjusted with CsOH or HMeSO3, as needed, to 7.2 (23° C.) and ˜300 mOsm, respectively. Cells were bathed in a solution containing (in mM): 138 NaCl, 5 KCl, 1.8 CaCl2, 1 MgCl2, 10 HEPES; pH and osmolarity were adjusted with NaOH or HCl, as needed, to 7.4 (23° C.) and ˜310 mOsm, respectively. Cells were held at −40 mV for 3-5 min to allow for intracellular dialysis. Bath superfusion was stopped prior to initiating the recording of currents resulting from the indicated voltage protocol applied every 5 s. Immediately before use, a 4-α-PDD stock solution (2 mM in EtOH, on ice) was diluted 1:50 in bath solution under vortex and 50 μl was subsequently added to a still bath (0.5 ml) by pipette (final concentrations of 4 μM 4-α-PDD and 0.2% EtOH) and mixed by 3 gentle up/down pipette strokes. […]

[4] = tested on: VEGF; conditions: cited from earlier work
[5] = mice; cited from earlier work
[6] = tested on: bovine CE cells; test: Cyclic strain-induced CE cell reorientation (alignment); type: cell-based
Method: as §1

[7] = tested on: cytosolic calcium in CE cells; test: Mechanical strain-induced calcium influx, FLUO-4 calcium imaging; type: cell-based, bovine; conditions: strain 15%, 3-4 sec, gadolinium chloride 25 μM, siRNA 10 nM
Method: as §1

[8] = tested on: β1 integrin; test: Strain-induced β1 integrin activation (GST-FNIII8-11 / 12G10 binding, T788/789 phosphorylation); type: cell-based; conditions: bovine CE cells, GST-FNIII8-11 and 12G10 binding
Method: (§2) Western blotting were performed according to methods published in Mammoto et. al. (2007) (J. Cell Sci., 120:456-467). Membranes containing transferred protein were blocked in 3% BSA/TBST for 1 h and incubated overnight with primary antibodies against AKT and phospho Ser-473 AKT (1:1000), phospho-Thr 788/789 of […] integrin cytoplasmic tail (1:1000), ERK1/2 and phospho ERK1/2 (1:1000), FAK and phospho FAK-pY397 (1:1000), actin (1:1000) and TRPV4 (1:1000) at 4° C. The membranes were subsequently washed incubated with HRP-conjugated secondary antibodies (1:5000) for 1 h and washed and incubated with SUPERSIGNAL® West Pico ECL reagent from Pierce Biotechnology Inc. (USA) and exposed to Kodak X-ray film (SIGMA ALDRICH®).
(§3) β1 integrin activation was measured using a glutathione S-transferase (GST) fusion protein consisting of FN III repeat 8-11 domains or 12G10 antibodies (Orr, A. W. et. al., 2006, Mol. Biol. Cell 17:4686-4697). Briefly, cells subjected to mechanical stretch were incubated with either 5 μg/ml of GST-FN III8-11 protein or 12G10 antibodies in PBS containing Ca^2+ and Mg^2+ for 30 min at 37° C., washed and lysed in SDS-sample buffer. The samples were separated on SDS-PAGE and the bound reagents were assessed on Western blots using anti GST-antibodies and HRP-conjugated secondary antibodies.

[9] = tested on: β1 integrin; test: Strain-induced β1 integrin activation (GST-FNIII8-11 binding, T788/789 phosphorylation); type: cell-based; conditions: human CE cells; 30 min pretreatment
Method: as §2, §3

[10] = tested on: PI3K; test: Strain-induced PI3K activity (GFP-AKT-PH translocation, AKT Ser-473 phosphorylation); type: cell-based, bovine; conditions: mechanical strain 15%
Method: Cells adherent to flexible ECM substrates and subjected to mechanical stretch were washed in PBS, fixed in 4% paraformaldehyde for 30 min either mounted on glass slides (for visualizing GFP-AKT-PH translocation) or permeabilized with 0.25% TRITON®-X 100/PBS for 5 min for immuno staining. […] Images were acquired on a LEICA® Confocal SP2 microscope and processed using LEICA® software and Adobe Photoshop. GFP-AKT-PH domain translocation to the plasma membrane was quantified measuring either ratio of the perimeter of whole cell membrane and the membrane that contains the GFP-AKT-PH domain or the ratio of GFP fluorescence intensity of translocated GFP-AKT-PH domain and cytosol adjacent to the membrane. […] Statistical differences between experimental groups were determined using the student t-test.
Membranes containing transferred protein were blocked in 3% BSA/TBST for 1 h and incubated overnight with primary antibodies against AKT and phospho Ser-473 AKT (1:1000), phospho-Thr 788/789 of 131 integrin cytoplasmic tail (1:1000), ERK1/2 and phospho ERK1/2 (1:1000), FAK and phospho FAK-pY397 (1:1000), actin (1:1000) and TRPV4 (1:1000) at 4° C. […]

[11] = tested on: cytosolic calcium in CE cells; test: Calcium influx on direct force application to cell surface integrins; type: cell-based, bovine; conditions: within 5 to 50 msec
[12] = tested on: cytosolic calcium in CE cells; conditions: within 2-5 sec; cited from earlier work
[13] = tested on: CE cells
[14] = tested on: VEGF; conditions: in vivo; cited from earlier work

Q: For `CCCCCCCCCC(=O)O[C@@H]1[C@@H](C)[C@@]2(O)[C@@H](C=C(CO)C[C@@]3(O)C(=O)C(C)=C[C@@H]23)[C@@H]2C(C)(C)[C@]12OC(=O)CCCCCCCCC` [4-α-PDD, 4-α-phorbol 12, 13-didecanoate], which calcium signal [1] is on record?
A: robust calcium signal

Q: What about the calcium signal [2] of the same compound?
A: robust calcium signal

Q: And the “TRPV4 currents, whole-cell clamp” value [3]?
A: robust TRPV4 currents

Q: For `CN(C)c1ccc(/C=C2\C(=O)Nc3ccccc32)cc1` [SU 4312], which vessel formation [4] is on record?
A: blocked

Q: With `CO[C@@H]1[C@H](OC(=O)NC(=O)CCl)CC[C@]2(CO2)[C@H]1[C@@]1(C)O[C@@H]1CC=C(C)C` [TNP-470] as the compound, how does the “diet-induced and genetic obesity” value [5] read?
A: prevent

Q: And the “vascularity in the adipose tissue” value [5]?
A: reduced

Q: What does the source list for `[Cl][Gd]([Cl])[Cl]` [gadolinium chloride]?
A: CE cell reorientation / re-alignment induced by mechanical strain [6]: greatly suppressed; calcium influx / cytosolic calcium induced by mechanical strain [7]: almost completely abolished; also recorded: reduced influx; β1 integrin activation in response to mechanical strain [8]: significantly inhibited; β1 integrin activation in response to mechanical strain [9]: significantly inhibited; strain-induced translocation of AKT-PH-GFP to the membrane [10]: inhibited; calcium influx on force application to integrins [11]: inhibited; calcium influx on direct force application to β1 integrins (magnetic tweezers) [12]: blocked

Q: Which “CE cell reorientation / re-alignment induced by mechanical strain” value [6] does the source give for `N.N.N.N.N.N.N.N.N.N.N.N.N.N.[Cl-].[Cl-].[Cl-].[Cl-].[Cl-].[Cl-].[O-2].[O-2].[Ru+3].[Ru+3].[Ru+4]` [ruthenium red] here?
A: significantly suppressed; also recorded: inhibits

Q: And the “calcium influx / cytosolic calcium induced by mechanical strain” value [7]?
A: significantly suppressed; also recorded: reduced influx

Q: And the “CE cell apoptosis (poly(ADPribosyl) polymerase cleavage)” value [13]?
A: did not effect

Q: And the “CE cell proliferation (Ki 67 staining)” value [13]?
A: did not effect

Q: For “dRK6: Anti-VEGF hexapeptide RRKRRR (SEQ. ID. NO. 12) ([dR][dR][dK][dR][dR][dR])”, which arthritis severity [14] is on record?
A: suppress and mitigate
